Reference: ChEMBL document CHEMBL1159016, “Patellamide E: a new cyclic peptide from the ascidian Lissoclinum patella” (J Nat Prod, 1992)
In brackets after ≈: the same amount, converted by molar mass.

System: HCT-116
Assay: Cytotoxicity against human HCT116 cells
Assay type: functional, cell-based

SMILES: CC[C@H](C)[C@@H]1NC(=O)c2csc(n2)[C@@H](C(C)C)NC(=O)[C@H]2N=C(O[C@@H]2C)[C@H](C(C)C)NC(=O)c2csc(n2)[C@@H](Cc2ccccc2)NC(=O)[C@H]2N=C1O[C@@H]2C [PATELLAMIDE E]
- IC50: 125 µg/mL (≈ 158 µM)
